The text below walks through data of patent US20200276181A1, “THIENOISOQUINOLINES AND THEIR DERIVATIVES FOR TARGETING TUBULIN, CH-TOG, AURORA A KINASE, TPX2, CDK5RAP2 AND/OR ASPM” (VALORBEC, SEC, priority 2017, published 2020).

Each structure is given as a SMILES string.

In one assay the test system is HeLa spheroids. Briefly: Multicellular tumour spheroids. It counts as cell-based, human. As for the experimental part: (§1) FIGS. 5A, 5B, 5C, 5D, 5E, 5F, 5G, 5H, 5I, 5J, 5K, 5L and 5M show how C75 disrupts or reduces the growth of HeLa, HCT116 and A549 spheroids. FIG. 5A) images show HeLa spheroids over time (3 days) before and after treatment with control (1 μM C87; n=10), 250 nM (n=6) or 500 nM (n=10) of C75. The scale bar is 100 μm. FIG. 5B) is a series images of HeLa spheroids after three days of treatment with control (500 nM C87) or 500 nM C75. The spheroids were stained for fluorescein diacetate (to detect live cells) and propidium iodide (to detect dead cells). […] The scale bar is 100 μm. FIG. 5C) is a line graph showing the change in spheroid area (μm^2) for each day and treatment as indicated. Bars show standard deviation and the asterisks are p<0.05 as determined by the student's t test. FIG. 5D) images show HeLa spheroids over 3 days before and after treatment with empty nanoparticles (control; n=3) or 250 nM of nanoparticle-encapsulated C75 (n=3). The scale bar is 100 μm. […] Bars show standard deviation and the asterisks are p<0.05 as determined by the student's t test. FIG. 5F) is a series of images of HCT116 spheroids treated with control (1 μM C87; n=10), 500 nM C75 (n=10) and 1 μM C75 (n=10). […] Bars show standard deviation and the asterisks are p<0.05 as determined by the student's t test. […] Bars show standard deviation and the asterisks are p<0.05 as determined by the student's t test. […]

The next assay concerns A549 spheroids. Briefly: Multicellular tumour spheroids. The format is cell-based, human. As for the experimental part: as §1
Assay [1] concerns HeLa cells in comparison to HFF1 cells. Briefly: Percentage of cells in mitosis, 8 hours. The following applies: nanomolar range. It counts as cell-based. As for the experimental part: FIG. 1A) is a line graph showing changes in the percentage of viable HFF-1, HeLa, A549 and HCT 116 cells after treatment with a range of C75 concentrations for 3 population doubling times (N=3). […] There were more rounded mitotic cells after C75 treatment in comparison to the control. FIG. 1C) is a line graph showing the percentage of HeLa and HFF1 cells in mitosis after treatment with various concentrations of C75 for 8 hours. The bars indicate standard deviation. FIG. 1D) is a series of images showing cells that were fixed and co-stained for tubulin (microtubules) and DAPI (DNA). Treatment of HeLa cells with 300 nM C75 caused the mitotic spindles to be disorganized, while they were not affected in HFF1 cells. […] The scale bar for the cells is 10 μm. […] FIG. 1F) is a cartoon schematic showing the key features of a metaphase cell.
The images in FIG. 1B) show fields of view of HeLa cells treated with (dimethyl sulfoxide) DMSO or 500 nM of C75. […] Higher concentrations of C75 caused spindle phenotypes in HFF1 cells, but they were quite different in comparison to HeLa cells (FIG. 1D).

The subject of a further assay is HCT116 cells. Nature of the assay: Viability IC50 of C75 in combination with subthreshold colchicine. The format is cell-based. To be noted: + 3 nM colchicine. From the text: Bars show standard deviation. […] The scale bar for all cells is 10 μm. In FIG. 4F), bar graphs show changes in the proportion of HCT 116 cells with the different spindle phenotypes as in FIG. 4D (n=2368; N=3). […] Bars indicate standard deviation.

The next assay has as its system HCT116 spheroids. Nature of the assay: Multicellular tumour spheroids. The format is cell-based. As for the experimental part:
FIGS. 5A, 5B, 5C, 5D, 5E, 5F, 5G, 5H, 5I, 5J, 5K, 5L and 5M show how C75 disrupts or reduces the growth of HeLa, HCT116 and A549 spheroids. FIG. 5A) images show HeLa spheroids over time (3 days) before and after treatment with control (1 μM C87; n=10), 250 nM (n=6) or 500 nM (n=10) of C75. The scale bar is 100 μm. FIG. 5B) is a series images of HeLa spheroids after three days of treatment with control (500 nM C87) or 500 nM C75. The spheroids were stained for fluorescein diacetate (to detect live cells) and propidium iodide (to detect dead cells). […] The scale bar is 100 μm. FIG. 5C) is a line graph showing the change in spheroid area (μm^2) for each day and treatment as indicated. Bars show standard deviation and the asterisks are p<0.05 as determined by the student's t test. FIG. 5D) images show HeLa spheroids over 3 days before and after treatment with empty nanoparticles (control; n=3) or 250 nM of nanoparticle-encapsulated C75 (n=3). The scale bar is 100 μm. […] Bars show standard deviation and the asterisks are p<0.05 as determined by the student's t test. FIG. 5F) is a series of images of HCT116 spheroids treated with control (1 μM C87; n=10), 500 nM C75 (n=10) and 1 μM C75 (n=10). FIG. 5G) is a series images of HCT116 spheroids after six days of treatment with control (1 μM C87) or 1 μM C75. The spheroids were stained for fluorescein diacetate (live cells) and propidium iodide (dead cells). […] FIG. 5H) is a line graph showing the growth in surface area (%) of HCT116 spheroids treated with control (1 μM C87), 500 nM C75 and 1 μM C75 after six days. FIG. 5I) is a series of images of A549 spheroids treated with control (1 μM C87, n=6), 500 nM C75 (n=6), and 1 μM C75 (n=6) over 5 days. The scale bar is 100 μm. FIG. 5J) is a series of images of A549 spheroids after six days of treatment with control (750 nM C87) or 1 μM C75. The spheroids were stained for fluorescein diacetate (live cells) and propidium iodide (dead cells). […] Bars show standard deviation and the asterisks are p<0.05 as determined by the student's t test. FIG. 5L) images show A549 spheroids over 6 days before and after treatment with empty nanoparticles (control; n=3) or 500 nM of nanoparticle-encapsulated C75 (n=3). The scale bar is 100 μm. […] Bars show standard deviation and the asterisks are p<0.05 as determined by the student's t test.
FIG. 11A) is a series of images of HCT116 spheroids treated with control (DMSO), 10 nM paclitaxel, 250 nM C75 or both for 6 days. […] The scale bar for the images is 100 μm. […] As shown in the images, adding paclitaxel and C75 in combination led to regression in spheroid size compared to each treatment on its own.
The thienoisoquinoline compounds may also have potential for use in combinatorial therapies. […]

For the compound `COc1ccc(S(=O)(=O)N2Cc3ccccc3-c3sc(Br)cc32)cc1` [Compound C75], the results for the effect on spheroids entry with HeLa spheroids, with A549 spheroids and in the assay on HCT116 spheroids (HCT116 spheroids) were “disrupt”, “regress the growth” and “regress the growth”, respectively. Further, the “mitotic arrest in HeLa vs HFF1” value in assay [1] is on record as “selectively causes mitotic arrest”. The “lowering of the IC50 of C75 by subthreshold colchicine” value with HCT116 cells is about 2 fold. In addition, the “spheroid growth, single drug” value in the assay with HCT116 spheroids (10 nM paclitaxel or 250 nM C75 alone, 6 days) is listed as “failed to grow”. For the same compound, in the assay on HCT116 spheroids (250 nM C75 + 10 nM paclitaxel, 6 days), the “spheroid growth, combination” value is given as “regressed in size”.
